US8202836B2, “Modified PYY (3-36) peptides and their effects on feeding behavior” (Imperial Innovations Limited, priority 2005, dated 2012)

Legend:
Male Wistar rats = assay: Food intake after intraperitoneal injection in overnight-fasted rats; type: in vivo; settings: for reduction of food intake by 30 μg/kg versus a 100 μg/kg dose of PYY(3-36): dose response, peripheral injection after overnight fast
Experimental: (§1) Male C57BL/6 mice (20-30 g) were used for all mouse experiments. Male Wistar rats were used for the rat experiments. Mice or rats were individually housed in IVC cages. Animals were randomised by weight and fasted overnight for 16 hrs before intraperitoneal injection at 9 am. Food intake was measured at 1, 2, 4, 6 and 24 hours post injection. All peptide solutions were prepared freshly the morning of the study and injected as 100 μl. All statistics are calculated using the student's paired t-test.
The experiment was identical to Example 2, except that Wistar rats were used instead of C57BL/6 mice. 30 μg/kg or 100 μg/kg of PYY(3-36) or D_allo_ILeu^3 PYY(3-36) was injected after an overnight fast and food intake was measured at time intervals over a period of 24 hours. In the Figures, significance versus saline is indicated by *=p<0.05, **=p<0.01, ***=p<0.001 paired t-test.

Male C57BL/6 mice = assay: Food intake after intraperitoneal injection in overnight-fasted mice; type: in vivo; settings: for reduction of food intake by 30 μg/kg versus a 100 μg/kg dose of PYY(3-36): dose response, peripheral injection after overnight fast
Experimental: as §1
Mice were injected with PYY(3-36) 100 μg/kg, allo_ILeu^3 PYY(3-36) 100 μg/kg, D_allo_ILeu^3 PYY(3-36) 100 μg/kg or saline (n=10/group) and food intake was measured at time intervals over 24 hours. In the Figure, significance versus saline is indicated by *=p<0.05, **=p<0.01, ***=p<0.001 paired t-test.
30 μg/kg or 100 μg/kg of PYY(3-36) or D_allo_ILeu^3 PYY(3-36) was injected after an overnight fast and food intake was measured at time intervals over a period of 24 hours. In the Figures, significance versus saline is indicated by *=p<0.05, **=p<0.01, ***=p<0.001 paired t-test.

[1] = from 30 μg/kg vs 100 μg/kg comparison

D-allo-Ile^3 PYY3-36 [D_allo_ILeu^3 PYY(3-36)]
decrease of food intake over the total period 0-4 hours versus native PYY3-36 (Male Wistar rats; 0-4 hours): to a greater extent | reduction of food intake by 30 μg/kg versus a 100 μg/kg dose of PYY(3-36) (Male Wistar rats): at least as powerful | reduction of food intake by 30 μg/kg versus a 100 μg/kg dose of PYY(3-36) (Male Wistar rats; listed as D-allo-Ile^3 PYY3-36): same decrease in food intake | superiority in efficacy over PYY(3-36) (Male Wistar rats; [1]): 3 fold | decrease in food intake versus the same quantity of normal human PYY3-36 (Male Wistar rats; same quantity): greater decrease in food intake | decrease of food intake over the total period 0-4 hours versus native PYY3-36 (Male C57BL/6 mice; 0-4 hours): to a greater extent | cumulative food intake compared to the PYY(3-36) injected group (p, paired t-test) (Male C57BL/6 mice; 100 μg/kg each, 0-1 hr): 0.0138 | cumulative food intake compared to the PYY(3-36) injected group (p, paired t-test) (Male C57BL/6 mice; 100 μg/kg each, 0-2 hr): 0.0063 | cumulative food intake compared to the PYY(3-36) injected group (p, paired t-test) (Male C57BL/6 mice; 100 μg/kg each, 0-4 hr): 0.0003 | cumulative food intake compared to the PYY(3-36) injected group (p, paired t-test) (Male C57BL/6 mice; 100 μg/kg each, 0-6 hr): 0.0024 | food intake over a 24 hr period compared to the PYY(3-36) 100 μg/kg group (p, paired t-test) (Male C57BL/6 mice; 100 μg/kg each, 24 hr): 0.0554 | food intake compared with saline (Male C57BL/6 mice; 100 μg/kg intraperitoneal after overnight fast, n=10/group): significantly decreased food intake | reduction of food intake by 30 μg/kg versus a 100 μg/kg dose of PYY(3-36) (Male C57BL/6 mice): at least as powerful | reduction of food intake by 30 μg/kg versus a 100 μg/kg dose of PYY(3-36) (Male C57BL/6 mice; listed as D-allo-Ile^3 PYY3-36): same decrease in food intake | superiority in efficacy over PYY(3-36) (Male C57BL/6 mice; [1]): 3 fold
